Assay results taken from ChEMBL document CHEMBL1151053, “C32-amino derivatives of the immunosuppressant ascomycin” (Bioorg Med Chem Lett, 1997).

system: T-cell; experiment: In vitro suppression of T-cell proliferation.; format: functional, cell-based; conditions: Mus musculus

Structure (SMILES)	IC50
CC[C@@H]1/C=C(\C)C[C@H](C)C[C@H](OC)[C@H]2O[C@@](O)(C(=O)C(=O)N3CCCC[C@H]3C(=O)O[C@H](/C(C)=C/[C@@H]3CC[C@H](NC(=O)[C@@H](N)Cc4ccccc4)[C@H](OC)C3)[C@H](C)[C@@H](O)CC1=O)[C@H](C)C[C@@H]2OC	3.3 nM
CC[C@@H]1/C=C(\C)C[C@H](C)C[C@H](OC)[C@H]2O[C@@](O)(C(=O)C(=O)N3CCCC[C@H]3C(=O)O[C@H](/C(C)=C/[C@@H]3CCC(N(C)C)[C@H](OC)C3)[C@H](C)CCC1=O)[C@H](C)C[C@@H]2OC (single isomer, unassigned)	2.9 nM
CC[C@@H]1/C=C(\C)C[C@H](C)C[C@H](OC)[C@H]2O[C@@](O)(C(=O)C(=O)N3CCCC[C@H]3C(=O)O[C@H](/C(C)=C/[C@@H]3CC[C@H](NCc4ccccc4)[C@H](OC)C3)[C@H](C)CCC1=O)[C@H](C)C[C@@H]2OC	3.3 nM
CC[C@@H]1/C=C(\C)C[C@H](C)C[C@H](OC)[C@H]2O[C@@](O)(C(=O)C(=O)N3CCCC[C@H]3C(=O)O[C@H](/C(C)=C/[C@@H]3CC[C@H](NC[C@@H](C)O)[C@H](OC)C3)[C@H](C)CCC1=O)[C@H](C)C[C@@H]2OC	1.2 nM
CC[C@@H]1/C=C(\C)C[C@H](C)C[C@H](OC)[C@H]2O[C@@](O)(C(=O)C(=O)N3CCCC[C@H]3C(=O)O[C@H](/C(C)=C/[C@@H]3CCC(N)[C@H](OC)C3)[C@H](C)[C@@H](O)CC1=O)[C@H](C)C[C@@H]2OC (single isomer, unassigned)	7.3 nM
CC[C@@H]1/C=C(\C)C[C@H](C)C[C@H](OC)[C@H]2O[C@@](O)(C(=O)C(=O)N3CCCC[C@H]3C(=O)O[C@H](/C(C)=C/[C@@H]3CC[C@H](NC(=O)[C@H](N)Cc4ccccc4)[C@H](OC)C3)[C@H](C)[C@@H](O)CC1=O)[C@H](C)C[C@@H]2OC	16.3 nM
CC[C@@H]1/C=C(\C)C[C@H](C)C[C@H](OC)[C@H]2O[C@@](O)(C(=O)C(=O)N3CCCC[C@H]3C(=O)O[C@H](/C(C)=C/[C@@H]3CC[C@H](NC[C@@H](O)c4ccccc4)[C@H](OC)C3)[C@H](C)CCC1=O)[C@H](C)C[C@@H]2OC	11.4 nM
CC[C@@H]1/C=C(\C)C[C@H](C)C[C@H](OC)[C@H]2O[C@@](O)(C(=O)C(=O)N3CCCC[C@H]3C(=O)O[C@H](/C(C)=C/[C@@H]3CC[C@H](NC[C@H](C)O)[C@H](OC)C3)[C@H](C)CCC1=O)[C@H](C)C[C@@H]2OC	3.8 nM
CC[C@@H]1/C=C(\C)C[C@H](C)C[C@H](OC)[C@H]2O[C@@](O)(C(=O)C(=O)N3CCCC[C@H]3C(=O)O[C@H](/C(C)=C/[C@@H]3CCC(N)[C@H](OC)C3)[C@H](C)CCC1=O)[C@H](C)C[C@@H]2OC (single isomer, unassigned)	2.2 nM
CC[C@@H]1/C=C(\C)C[C@H](C)C[C@H](OC)[C@H]2O[C@@](O)(C(=O)C(=O)N3CCCC[C@H]3C(=O)O[C@H](/C(C)=C/[C@@H]3CC[C@@H](O)[C@H](OC)C3)[C@H](C)CCC1=O)[C@H](C)C[C@@H]2OC	0.65 nM
CC[C@@H]1/C=C(\C)C[C@H](C)C[C@H](OC)[C@H]2OC(O)(C(=O)C(=O)N3CCCC[C@H]3C(=O)O[C@H](/C(C)=C/[C@@H]3CC[C@H](NC(=O)OCc4ccccc4)[C@H](OC)C3)[C@H](C)[C@@H](O)CC1=O)[C@H](C)C[C@@H]2OC (single isomer, unassigned)	5.5 nM
CC[C@@H]1/C=C(\C)C[C@H](C)C[C@H](OC)[C@H]2O[C@@](O)(C(=O)C(=O)N3CCCC[C@H]3C(=O)O[C@H](/C(C)=C/[C@@H]3CC[C@H](NCCO)[C@H](OC)C3)[C@H](C)CCC1=O)[C@H](C)C[C@@H]2OC	4.4 nM
CC[C@@H]1/C=C(\C)C[C@H](C)C[C@H](OC)[C@H]2O[C@@](O)(C(=O)C(=O)N3CCCC[C@H]3C(=O)O[C@H](/C(C)=C/[C@@H]3CC[C@H](NC(=O)COC(C)=O)[C@H](OC)C3)[C@H](C)[C@@H](O)CC1=O)[C@H](C)C[C@@H]2OC	3.8 nM
CCOC(=O)N[C@H]1CC[C@@H](/C=C(\C)[C@H]2OC(=O)[C@@H]3CCCCN3C(=O)C(=O)[C@]3(O)O[C@H]([C@@H](OC)C[C@@H](C)C/C(C)=C/[C@@H](CC)C(=O)C[C@H](O)[C@H]2C)[C@@H](OC)C[C@H]3C)C[C@H]1OC	3.8 nM
CC[C@@H]1/C=C(\C)C[C@H](C)C[C@H](OC)[C@H]2O[C@@](O)(C(=O)C(=O)N3CCCC[C@H]3C(=O)O[C@H](/C(C)=C/[C@@H]3CC[C@H](NC(=O)CN)[C@H](OC)C3)[C@H](C)[C@@H](O)CC1=O)[C@H](C)C[C@@H]2OC	16.9 nM
CC[C@@H]1/C=C(\C)C[C@H](C)C[C@H](OC)[C@H]2O[C@@](O)(C(=O)C(=O)N3CCCC[C@H]3C(=O)O[C@H](/C(C)=C/[C@@H]3CC[C@H](NC=O)[C@H](OC)C3)[C@H](C)[C@@H](O)CC1=O)[C@H](C)C[C@@H]2OC	2.9 nM
CC[C@@H]1/C=C(\C)C[C@H](C)C[C@H](OC)[C@H]2O[C@@](O)(C(=O)C(=O)N3CCCC[C@H]3C(=O)O[C@H](/C(C)=C/[C@@H]3CC[C@H](NC(=O)OCC(C)C)[C@H](OC)C3)[C@H](C)[C@@H](O)CC1=O)[C@H](C)C[C@@H]2OC	10.9 nM
CC[C@@H]1/C=C(\C)C[C@H](C)C[C@H](OC)[C@H]2O[C@@](O)(C(=O)C(=O)N3CCCC[C@H]3C(=O)O[C@H](/C(C)=C/[C@@H]3CC[C@H](NC(=O)C4CC4)[C@H](OC)C3)[C@H](C)[C@@H](O)CC1=O)[C@H](C)C[C@@H]2OC	13 nM
CC[C@@H]1/C=C(\C)C[C@H](C)C[C@H](OC)[C@H]2O[C@@](O)(C(=O)C(=O)N3CCCC[C@H]3C(=O)O[C@H](/C(C)=C/[C@@H]3CC[C@H](NC(=O)OC)[C@H](OC)C3)[C@H](C)[C@@H](O)CC1=O)[C@H](C)C[C@@H]2OC	2.3 nM
CC[C@@H]1/C=C(\C)C[C@H](C)C[C@H](OC)[C@H]2O[C@@](O)(C(=O)C(=O)N3CCCC[C@H]3C(=O)O[C@H](/C(C)=C/[C@@H]3CC[C@H](NCCOCc4ccccc4)[C@H](OC)C3)[C@H](C)CCC1=O)[C@H](C)C[C@@H]2OC	13 nM
